In patent EP0394122A2, “Use of tetracyclines to manufacture a medicament for the treatment and prevention of AIDS” (priority 1989, dated 1990):

Experiments:
[1] = test system: lignée lymphoblastoïde CEM clone 13; test: Cytotoxicity on non-infected CEM clone 13 cells (MTT viability); format: cell-based, humaines
Procedure: (§1) Dans une microplaque de 96 puits on dépose 25 µl/puits d'une solution de produit à tester ou de tampon phosphate isotonique (TPI) dans le cas des contrôles. Les produits sont étudiés à différentes concentrations (souvent 8), à raison de 4 puits par concentration. On ajoute alors 125 µl d'une suspension de cellules CEM dans le milieu RPMI contenant 10 % de sérum de veau foetal, 40 U/ml de pénicilline, 40 µg/ml de streptomycine et 5 µg/ml de polybrène (3500 cellules par puits) et les microplaques sont incubées une heure à 37°C, sous une atmosphère contenant 5 % de gaz carbonique. Pour chaque concentration, l'essai est partagé en 2 parties : une partie sur cellules infectées, pour la détermination de l'activité antivirale et l'autre partie sur cellules non infectées, pour déterminer la cytotoxicité des produits. On infecte alors la première série avec HIV (100 µl par puit d'une suspension de virus LAV-1-BRU contenant 200-300 TCID50) tandis que l'autre série reçoit 100 µl de milieu RPMI tel que défini précédemment. Au bout de 7 jours d'incubation, 175 µl de surnageant sont prélevés et rejetés. La viabilité cellulaire est déterminée selon une modification de la technique décrite par R. Pauwels et coll., J. Virol.
(§2) Les puits, contenant encore les cellules (infectées ou non infectées), reçoivent 10 µl d'une solution de MTT (méthylthiazoletétrazolium) à 5 mg/ml dans du tampon phosphate isotonique. Pendant une période d'incubation de 4 heures, le MTT est converti en un sel de formazan (bleu) à l'intérieur des cellules vivantes et proportionnellement à leur nombre, alors que rien n'apparaît dans les puits ne contenant plus que des cellules mortes. On ajoute alors 120 µl d'isopropanol (contenant 0,04 mole/l d'acide chlorhydrique) et les microplaques sont agitées jusqu'à la solubilisation du bleu de formazan. L'absorption à 540 nm est lue avec un lecteur automatique de réactions ELISA en microplaques.
(§3) Pour les essais de plus longue durée, on procède comme décrit précédemment jusqu'au jour 7. A ce moment, 100 µl de cellules sont prélevés pour mesurer la proportion de cellules vivantes et le restant est remis en culture avec du milieu frais contenant les produits aux mêmes concentrations. Cette opération est répétée tous les 4 jours.

virus HIV (LAV-1-BRU) = test: Protection against the cytopathogenic effect of HIV in infected CEM clone 13 cells (MTT viability); format: cell-based
Procedure: as §1, with “Le test est réalisé sur la lignée lymphoblastoïde CEM clone 13. Dans” for “Dans”, “Virol. Meth., 20, 309-321 (1988).” for “Virol.”
as §2, §3

CN(C)c1ccc(O)c2c1C[C@H]1C[C@H]3[C@H](N(C)C)C(O)=C(C(N)=O)C(=O)[C@@]3(O)C(O)=C1C2=O [Exemple 5, minocycline]
Cellules non infectées Densité optique ([1]; 0,01 µg/ml, JOUR 14): 1,100
Cellules non infectées Densité optique ([1]; 0,01 µg/ml, JOUR 18): 1,050
Cellules non infectées Densité optique ([1]; 0,01 µg/ml, day 7): 1,590
Cellules non infectées Densité optique ([1]; 0,04 µg/ml, JOUR 14): 1,250
Cellules non infectées Densité optique ([1]; 0,04 µg/ml, JOUR 18): 1,050
Cellules non infectées Densité optique ([1]; 0,04 µg/ml, day 7): 1,650
Cellules non infectées Densité optique ([1]; 0,12 µg/ml, JOUR 14): 1,200
Cellules non infectées Densité optique ([1]; 0,12 µg/ml, JOUR 18): 1,100
Cellules non infectées Densité optique ([1]; 0,12 µg/ml, day 7): 1,750
Cellules non infectées Densité optique ([1]; 0,37 µg/ml, JOUR 14): 1,250
Cellules non infectées Densité optique ([1]; 0,37 µg/ml, JOUR 18): 1,150
Cellules non infectées Densité optique ([1]; 0,37 µg/ml, day 7): 1,670
Cellules non infectées Densité optique ([1]; 10 µg/ml, JOUR 14): 0,100
Cellules non infectées Densité optique ([1]; 10 µg/ml, JOUR 18): 0,100
Cellules non infectées Densité optique ([1]; 10 µg/ml, day 7): 0,480
Cellules non infectées Densité optique ([1]; 30 µg/ml, day 7): 0,420
Cellules non infectées Densité optique ([1]; 1,11 µg/ml, JOUR 14): 1,200
Cellules non infectées Densité optique ([1]; 1,11 µg/ml, JOUR 18): 1,100
Cellules non infectées Densité optique ([1]; 1,11 µg/ml, day 7): 1,760
Cellules non infectées Densité optique ([1]; 3,33 µg/ml, JOUR 14): 0,350
Cellules non infectées Densité optique ([1]; 3,33 µg/ml, JOUR 18): 0,400
Cellules non infectées Densité optique ([1]; 3,33 µg/ml, day 7): 1,650
Cellules infectées Densité optique (virus HIV (LAV-1-BRU); 0,01 µg/ml, JOUR 14): 0,300
Cellules infectées Densité optique (virus HIV (LAV-1-BRU); 0,01 µg/ml, JOUR 18): 0,250
Cellules infectées Densité optique (virus HIV (LAV-1-BRU); 0,01 µg/ml, day 7): 0,660
Cellules infectées Densité optique (virus HIV (LAV-1-BRU); 0,04 µg/ml, JOUR 14): 0,450
Cellules infectées Densité optique (virus HIV (LAV-1-BRU); 0,04 µg/ml, JOUR 18): 0,250
Cellules infectées Densité optique (virus HIV (LAV-1-BRU); 0,04 µg/ml, day 7): 0,720
Cellules infectées Densité optique (virus HIV (LAV-1-BRU); 0,12 µg/ml, JOUR 14): 0,620
Cellules infectées Densité optique (virus HIV (LAV-1-BRU); 0,12 µg/ml, JOUR 18): 0,450
Cellules infectées Densité optique (virus HIV (LAV-1-BRU); 0,12 µg/ml, day 7): 0,890
Cellules infectées Densité optique (virus HIV (LAV-1-BRU); 0,37 µg/ml, JOUR 14): 1,250
Cellules infectées Densité optique (virus HIV (LAV-1-BRU); 0,37 µg/ml, JOUR 18): 1,000
Cellules infectées Densité optique (virus HIV (LAV-1-BRU); 0,37 µg/ml, day 7): 1,210
Cellules infectées Densité optique (virus HIV (LAV-1-BRU); 10 µg/ml, JOUR 14): 0,100
Cellules infectées Densité optique (virus HIV (LAV-1-BRU); 10 µg/ml, JOUR 18): 0,100
Cellules infectées Densité optique (virus HIV (LAV-1-BRU); 10 µg/ml, day 7): 0,450
Cellules infectées Densité optique (virus HIV (LAV-1-BRU); 30 µg/ml, day 7): 0,320
Cellules infectées Densité optique (virus HIV (LAV-1-BRU); 1,11 µg/ml, JOUR 14): 1,250
Cellules infectées Densité optique (virus HIV (LAV-1-BRU); 1,11 µg/ml, JOUR 18): 0,950
Cellules infectées Densité optique (virus HIV (LAV-1-BRU); 1,11 µg/ml, day 7): 1,510
Cellules infectées Densité optique (virus HIV (LAV-1-BRU); 3,33 µg/ml, JOUR 14): 0,400
Cellules infectées Densité optique (virus HIV (LAV-1-BRU); 3,33 µg/ml, JOUR 18): 0,350
Cellules infectées Densité optique (virus HIV (LAV-1-BRU); 3,33 µg/ml, day 7): 1,340

doxycycline [Exemple 2]
Cellules non infectées Densité optique ([1]; 0,01 µg/ml, JOUR 14): 0,980
Cellules non infectées Densité optique ([1]; 0,01 µg/ml, JOUR 18): 1,100
Cellules non infectées Densité optique ([1]; 0,01 µg/ml, day 7): 1,530
Cellules non infectées Densité optique ([1]; 0,04 µg/ml, JOUR 14): 0,950
Cellules non infectées Densité optique ([1]; 0,04 µg/ml, JOUR 18): 1,050
Cellules non infectées Densité optique ([1]; 0,04 µg/ml, day 7): 1,34
Cellules non infectées Densité optique ([1]; 0,12 µg/ml, JOUR 14): 1,020
Cellules non infectées Densité optique ([1]; 0,12 µg/ml, JOUR 18): 1,020
Cellules non infectées Densité optique ([1]; 0,12 µg/ml, day 7): 1,53
Cellules non infectées Densité optique ([1]; 0,37 µg/ml, JOUR 14): 1,000
Cellules non infectées Densité optique ([1]; 0,37 µg/ml, JOUR 18): 1,000
Cellules non infectées Densité optique ([1]; 0,37 µg/ml, day 7): 1,60
Cellules non infectées Densité optique ([1]; 10 µg/ml, JOUR 14): 0,100
Cellules non infectées Densité optique ([1]; 10 µg/ml, JOUR 18): 0,100
Cellules non infectées Densité optique ([1]; 10 µg/ml, day 7): 0,740
Cellules non infectées Densité optique ([1]; 30 µg/ml, day 7): 0,2
Cellules non infectées Densité optique ([1]; 1,11 µg/ml, JOUR 14): 0,960
Cellules non infectées Densité optique ([1]; 1,11 µg/ml, JOUR 18): 1,020
Cellules non infectées Densité optique ([1]; 1,11 µg/ml, day 7): 1,50
Cellules non infectées Densité optique ([1]; 3,33 µg/ml, JOUR 14): 0,950
Cellules non infectées Densité optique ([1]; 3,33 µg/ml, JOUR 18): 0,950
Cellules non infectées Densité optique ([1]; 3,33 µg/ml, day 7): 1,50
Cellules infectées Densité optique (virus HIV (LAV-1-BRU); 0,01 µg/ml, JOUR 14): 0,250
Cellules infectées Densité optique (virus HIV (LAV-1-BRU); 0,01 µg/ml, JOUR 18): 0,240
Cellules infectées Densité optique (virus HIV (LAV-1-BRU); 0,01 µg/ml, day 7): 0,820
Cellules infectées Densité optique (virus HIV (LAV-1-BRU); 0,04 µg/ml, JOUR 14): 0,300
Cellules infectées Densité optique (virus HIV (LAV-1-BRU); 0,04 µg/ml, JOUR 18): 0,275
Cellules infectées Densité optique (virus HIV (LAV-1-BRU); 0,04 µg/ml, day 7): 0,785
Cellules infectées Densité optique (virus HIV (LAV-1-BRU); 0,12 µg/ml, JOUR 14): 0,450
Cellules infectées Densité optique (virus HIV (LAV-1-BRU); 0,12 µg/ml, JOUR 18): 0,250
Cellules infectées Densité optique (virus HIV (LAV-1-BRU); 0,12 µg/ml, day 7): 0,720
Cellules infectées Densité optique (virus HIV (LAV-1-BRU); 0,37 µg/ml, JOUR 14): 0,550
Cellules infectées Densité optique (virus HIV (LAV-1-BRU); 0,37 µg/ml, JOUR 18): 0,300
Cellules infectées Densité optique (virus HIV (LAV-1-BRU); 0,37 µg/ml, day 7): 1,000
Cellules infectées Densité optique (virus HIV (LAV-1-BRU); 10 µg/ml, JOUR 14): 0,100
Cellules infectées Densité optique (virus HIV (LAV-1-BRU); 10 µg/ml, JOUR 18): 0,100
Cellules infectées Densité optique (virus HIV (LAV-1-BRU); 10 µg/ml, day 7): 0,660
Cellules infectées Densité optique (virus HIV (LAV-1-BRU); 30 µg/ml, day 7): 0,200
Cellules infectées Densité optique (virus HIV (LAV-1-BRU); 1,11 µg/ml, JOUR 14): 0,880
Cellules infectées Densité optique (virus HIV (LAV-1-BRU); 1,11 µg/ml, JOUR 18): 0,700
Cellules infectées Densité optique (virus HIV (LAV-1-BRU); 1,11 µg/ml, day 7): 1,240
Cellules infectées Densité optique (virus HIV (LAV-1-BRU); 3,33 µg/ml, JOUR 14): 0,750
Cellules infectées Densité optique (virus HIV (LAV-1-BRU); 3,33 µg/ml, JOUR 18): 0,750
Cellules infectées Densité optique (virus HIV (LAV-1-BRU); 3,33 µg/ml, day 7): 1,370
